Laboratory results from patent US20260242438A1 (INSTITUTE OF MATERIA MEDICA, CHINESE ACADEMY OF MEDICAL …, priority 2022, published 2026).
Where a SMILES comes first, the peptide text is derived from it. Bridges are numbered along the chain shown (N, C = ends).

Biological target: chymotrypsin (Bos taurus, UniProt P00766)
Assay: Determination of enzyme inhibitory activity against chymotrypsin (substrate AAPFpNA, OD 405 nm)
Assay type: biochemical
Settings: for IC50: chymotrypsin 30 nM, AAPFpNA 0.5 mM, pH 7.8, 37° C.; for remaining activity at 0.001 µM: peptide 0.001 μM; for remaining activity at 0.01 µM: peptide 0.01 μM; for remaining activity at 0.1 µM: peptide 0.1 μM; for remaining activity at 1 µM: peptide 1 μM; for remaining activity at 10 µM: peptide 10 μM; for remaining activity at 100 µM: peptide 100 μM; for inhibitory activity reduced (fold): relative to CH10; for remaining activity at 0.0001 µM: peptide 0.0001 μM; for remaining activity at 0.25 µM: peptide 0.25 μM; for remaining activity at 0.5 µM: peptide 0.5 μM; for remaining activity at 0.2 µM: peptide 0.2 μM; for remaining activity at 1000 µM: peptide 1000 μM; for remaining activity at 0.75 µM: peptide 0.75 μM
Method: The substrates N-succinyl-Ala-Ala-Pro-Phe-p-nitroaniline (AAPFpNA) is used in competitive binding reaction to determine the inhibitory activities against α -chymotrypsin. Experiments for a-chymotrypsin was measured in 20 mM CaCl2, 50 mM Tris-HCl buffer (pH 7.8). The concentration of the peptide was measured using optical density (OD) at 280 nm. The Michaelis constant (Km) of the enzyme hydrolysis substrate is calculated from the initial rate of substrate hydrolysis at 405 nm. The absorbance value of the substrate was measured at 405 nm after complete hydrolysis. All data were processed using nonlinear regression.
(1) Added a total 190 μL of reaction buffer (20 mM CaCl2, 50 mM Tris-HCl (pH 7.8)), different concentrations of anti-chymorypsin peptides (CHs) into the pre-cold 96 well plate, followed by preheating at 37° C. for 5 min and centrifugated at 500 rpm for 1 min and allowed to stand for 4 minutes. Then added 8 μL of 750 nM chymotrypsin and incubated at 37° C. for 10 min, and centrifugated at 500 rpm for 1 min and allowed to stand for 9 minutes. Finally, added 2 μL of 50 mM AAPFpNA, and mixed by centrifugation at 500 rpm for 1 min. The plate was incubated at 37° C. for 90 min, and the absorbance value at 405 nm was measured. Three repetitions were made, and only reaction buffer and substrate were added in the blank control as the minimum absorption value (Min OD 405 nm); Only reaction buffer, enzyme and substrate were added in the negative control as the maximum absorption value (Max OD 405 nm).
(2) In the 200 μL of reaction system, the final concentrations of chymotrypsin and AAPFpNA were 30 nM and 0.5 mM, respectively.
Plotted the residual activity of enzyme with […] to obtain the half inhibitory concentration (IC50) of anti-chymorypsin peptides (CHs). Then, substituted it into the formula […]/(1+S/Km) (S, IC50, and Km were substrate concentration, half inhibitory concentration, and Michaelis constant, respectively) to obtain the inhibition constant Ki of anti-chymorypsin peptides (CHs).

[1] = read-out: Residual activity of chymotrypsin

Row | Structure (SMILES) | Ki | IC50 | remaining activity at 0.001 µM [1] | remaining activity at 0.01 µM [1] | remaining activity at 0.1 µM [1] | remaining activity at 1 µM [1] | remaining activity at 10 µM [1] | remaining activity at 100 µM [1] | remaining activity at 0.0001 µM [1] | remaining activity at 0.5 µM [1] | remaining activity at 1000 µM [1] | also measured
1 | CC[C@H](C)[C@@H]1NC(=O)[C@H](CO)NC(=O)[C@H](Cc2ccccc2)NC(=O)[C@H]([C@@H](C)O)NC(=O)[C@@H](NC(=O)[C@@H](N)CO)CSSC[C@@H](C(=O)N[C@@H](Cc2ccc(O)cc2)C(=O)NCC(=O)O)NC(=O)[C@H](CCC(N)=O)NC(=O)[C@@H]2CCCN2C(=O)[C@@H]2CCCN2C1=O [CH11] (H-SCTFSIPPQCYG-OH; disulfide 2-10; C-terminus assumed) | 150 nM | 350 nM | 98.5 ± 3.1% | 104 ± 1.8% | 95.3 ± 3% | 17.6 ± 0.8% | 6.5 ± 0.3% | 1.1 ± 0.2% |  |  |  | remaining activity at 0.15 µM (peptide 0.15 μM, read-out: Residual activity of chymotrypsin): 82.3 ± 3.3%; remaining activity at 5 µM (peptide 5 μM, read-out: Residual activity of chymotrypsin): 12.5 ± 0.7%; remaining activity at 300 µM (peptide 300 μM, read-out: Residual activity of chymotrypsin): 0.2 ± 0.6%; inhibitory activity reduced (fold): ~7 times
2 | CC[C@H](C)[C@@H]1NC(=O)[C@@H]2CCCN2C(=O)[C@@H]2CCCN2C(=O)[C@H]([C@@H](C)CC)NC(=O)[C@H](CO)NC(=O)[C@H](Cc2ccc(O)cc2)NC(=O)[C@H]([C@@H](C)O)NC(=O)[C@@H](NC(=O)[C@@H](NC(=O)CN)[C@@H](C)O)CSSC[C@@H](C(=O)N[C@@H](CC(N)=O)C(=O)N2CCC[C@H]2C(=O)N[C@@H](CC(N)=O)C(=O)O)NC1=O [CH60] (H-GTCTYSIPPICNPN-OH; disulfide 3-11; C-terminus assumed) | 40 nM | 90 nM | 104.5 ± 0.9% | 102 ± 7.6% | 47.6 ± 7.6% | 3 ± 0.2% | 0.7 ± 0.1% | 0% | 104.2 ± 0.8% | 7.4 ± 1% |  | remaining activity at 0.25 µM [1]: 29.5 ± 4.6%
3 | CC[C@H](C)[C@@H]1NC(=O)[C@@H]2CCCN2C(=O)[C@@H]2CCCN2C(=O)[C@H]([C@@H](C)CC)NC(=O)[C@H](CO)NC(=O)[C@H](Cc2ccccc2)NC(=O)[C@H]([C@@H](C)O)NC(=O)[C@@H](NC(=O)[C@@H](NC(=O)CN)[C@@H](C)O)CSSC[C@@H](C(=O)N[C@@H](CC(N)=O)C(=O)N2CCC[C@H]2C(=O)N[C@@H](CC(N)=O)C(=O)O)NC1=O [CH25] (H-GTCTFSIPPICNPN-OH; disulfide 3-11; C-terminus assumed) |  |  | 100 ± 1.9% | 96.9 ± 1.4% |  | 15.4 ± 1.2% | 1.5 ± 0.3% | 0.2 ± 0.2% | 99.7 ± 1% |  | 0.2 ± 0.1% | remaining activity at 0.2 µM [1]: 63.1 ± 4.1%; remaining activity at 0.3 µM (peptide 0.3 μM, read-out: Residual activity of chymotrypsin): 44.6 ± 4.9%
4 | CC[C@H](C)[C@@H]1NC(=O)[C@@H]2CCCN2C(=O)[C@@H]2CCCN2C(=O)[C@H]([C@@H](C)CC)NC(=O)[C@H](CO)NC(=O)[C@H](Cc2ccc(O)cc2)NC(=O)[C@H]([C@@H](C)O)NC(=O)[C@@H](NC(=O)[C@@H](NC(=O)CN)[C@@H](C)O)CSSC[C@@H](C(=O)N[C@@H](CC(N)=O)C(=O)N2CCC[C@H]2C(=O)O)NC1=O [CH61] (H-GTCTYSIPPICNP-OH; disulfide 3-11; C-terminus assumed) | 50 nM | 120 nM | 100.1 ± 0.7% | 97.3 ± 5.4% | 44.2 ± 4.5% | 13.3 ± 1.7% | 1.7% | 0.2% | 100.9 ± 0.6% | 24.3 ± 2.5% |  | remaining activity at 0.05 µM (peptide 0.05 μM, read-out: Residual activity of chymotrypsin): 86.1 ± 3.3%
5 | CC[C@H](C)[C@@H]1NC(=O)[C@H](CO)NC(=O)[C@H](Cc2ccc(O)cc2)NC(=O)[C@H]([C@@H](C)O)NC(=O)[C@@H](NC(=O)[C@@H]2CCCN2)CSSC[C@@H](C(=O)N[C@@H](Cc2ccc(O)cc2)C(=O)O)NC(=O)[C@H](CCC(N)=O)NC(=O)[C@@H]2CCCN2C(=O)[C@@H]2CCCN2C1=O [CH51] (H-PCTYSIPPQCY-OH; disulfide 2-10; C-terminus assumed) | 200 nM | 460 nM | 100 ± 1.2% | 100 ± 0.2% | 95.4 ± 2.2% | 24.3 ± 2.4% | 3 ± 0.2% | 0.3% |  |  |  | remaining activity at 0.2 µM [1]: 80.3 ± 3.9%; remaining activity at 0.4 µM (peptide 0.4 μM, read-out: Residual activity of chymotrypsin): 54.2 ± 1.8%; remaining activity at 0.8 µM (peptide 0.8 μM, read-out: Residual activity of chymotrypsin): 31.2 ± 1.6%; inhibitory activity reduced (fold): ~7 times
6 | CC[C@H](C)[C@@H]1NC(=O)[C@@H]2CCCN2C(=O)[C@@H]2CCCN2C(=O)[C@H]([C@@H](C)CC)NC(=O)[C@H](CO)NC(=O)[C@H](Cc2ccc(O)cc2)NC(=O)[C@H]([C@@H](C)O)NC(=O)[C@@H](NC(=O)[C@@H](N)CCCNC(=N)N)CSSC[C@@H](C(=O)N[C@@H](Cc2ccccc2)C(=O)O)NC1=O [CH58] (H-RCTYSIPPICF-OH; disulfide 2-10; C-terminus assumed) | 120 nM | 270 nM |  |  |  |  |  |  |  |  |  | 
7 | CC[C@H](C)[C@@H]1NC(=O)[C@@H]2CCCN2C(=O)[C@@H]2CCCN2C(=O)[C@H]([C@@H](C)CC)NC(=O)[C@H](CO)NC(=O)[C@H](Cc2ccc(O)cc2)NC(=O)[C@H]([C@@H](C)O)NC(=O)[C@H](C)NC(=O)[C@H](CCCNC(=N)N)NC(=O)CNC(=O)[C@@H](N)CSSC[C@@H](C(=O)N[C@@H](Cc2ccccc2)C(=O)N2CCC[C@H]2C(=O)N[C@@H](CC(=O)O)C(=O)O)NC1=O [CH65] (H-CGRATYSIPPICFPD-OH; disulfide 1-12; C-terminus assumed) | 210 nM | 480 nM | 99.8 ± 2% |  | 97.8 ± 4.4% | 8.9 ± 1.4% | 4.1 ± 2.3% | 0.1 ± 0.1% |  | 48.2 ± 3.6% | 0.2% | remaining activity at 0.25 µM [1]: 89.5 ± 2.9%; remaining activity at 0.75 µM [1]: 11.7 ± 1.4%
8 | CC[C@H](C)[C@@H]1NC(=O)[C@H](CO)NC(=O)[C@H](Cc2ccc(O)cc2)NC(=O)[C@H]([C@@H](C)O)NC(=O)[C@@H](NC(=O)[C@@H](N)Cc2ccccc2)CSSC[C@@H](C(=O)N[C@@H](Cc2ccc(O)cc2)C(=O)O)NC(=O)[C@H](CCC(N)=O)NC(=O)[C@@H]2CCCN2C(=O)[C@@H]2CCCN2C1=O [CH33] (H-FCTYSIPPQCY-OH; disulfide 2-10; C-terminus assumed) | 190 nM | 440 nM | 99.5 ± 1.4% | 92.1 ± 2.1% | 93.6 ± 1.6% | 19.8 ± 1% | 2 ± 0.2% | 0.1% |  | 42.7 ± 3.1% | 0.1% | remaining activity at 0.75 µM [1]: 24.6 ± 2%
9 | CC[C@H](C)[C@@H]1NC(=O)[C@@H]2CCCN2C(=O)[C@@H]2CCCN2C(=O)[C@H]([C@@H](C)CC)NC(=O)[C@H](CO)NC(=O)[C@H](Cc2ccc(O)cc2)NC(=O)[C@H]([C@@H](C)O)NC(=O)[C@H](C)NC(=O)[C@H](CCCNC(=N)N)NC(=O)CNC(=O)[C@@H](N)CSSC[C@@H](C(=O)N[C@@H](Cc2ccccc2)C(=O)O)NC1=O [CH67] (H-CGRATYSIPPICF-OH; disulfide 1-12; C-terminus assumed) | 860 nM | 2000 nM |  |  |  |  |  |  |  |  |  | 
